Consider one molecule from publication PMC11352945, “Anticancer Activity of Benzo[a]phenoxazine Compounds Promoting Lysosomal Dysfunction” (Cells, 2024).

The test system of one assay is BJ-5ta cells. Description: Sulforhodamine B (SRB) cell viability assay, BJ-5ta. The conditions noted are these: Homo sapiens, non-neoplastic cell line, 48 h, read-out: IC50 (μM) ± SD, BJ-5ta. The class given is cell-based. On the procedure:
(§1) The cells were allowed to adhere overnight, from 12 h to 18 h, and then treated with increasing concentrations of each compound, C9, A36, and A42 (0.125 μM, 0.25 μM, 0.5 μM, 1 μM, 2.5 μM, and 5 μM), in their respective culture mediums for 48 h. In addition to a negative control that consisted only of cells and growth medium, a negative control containing the highest concentration of the solvent in which the compound was dissolved (DMSO 0.1%) was also used. The SRB assay was performed according to Marques et al.. The IC50 values were obtained using GraphPad Prism version 8.2.1 through the application of a sigmoidal dose–response nonlinear regression, after logarithmic transformation. The selectivity index was determined by dividing the IC50 value of the non-neoplastic BJ-5ta cell line by the IC50 value of the cancer cell lines (IC50 BJ-5ta/IC50 cancer cell line); furthermore, for the CRC model, a second selectivity index was also determined using the non-neoplastic NCM460 cell line (IC50 NCM460/IC50 CRC cell line). According to the results of the selectivity index, the cell line with the highest selectivity value for each of the models, CRC and breast, was selected for subsequent characterization.
(§2) Three CRC-derived cell lines, SW480 (KRAS^G12V), HCT116 (KRAS^G13D), and RKO (BRAF^V600E), harboring somatic mutations on KRAS or BRAF, and two breast-cancer-derived cell lines, MDA-MB-231 (basal like) and MCF7 (luminal A subtype), together with two non-neoplastic cell lines, NCM460 (normal colon mucosal epithelial cell line) and BJ-5ta (normal foreskin fibroblast cell line), were used to study the activity and selectivity of the three new benzo[a]phenoxazine compounds, C9, A36, and A42. All cell lines were treated with a range of drug concentrations (0.125 μM, 0.25 μM, 0.5 μM, 1 μM, 2.5 μM, and 5 μM) for 48 h, and the effect on cell viability was assessed using a sulforhodamine B assay (SRB) (Figure 2). […] In addition, the selectivity index was determined using the BJ-5ta cell line as a reference, as well as the NCM460 cell line for the CRC model (Table 1).

The test system of a further assay is HCT116 cells. Description: Sulforhodamine B (SRB) cell viability assay, HCT116. The class given is cell-based. The conditions noted are these: Homo sapiens, HCT-116, CRC cell line, 48 h, read-out: IC50 (μM) ± SD, HCT116. On the procedure: as §1, §2
Assay [1] deals with RKO cells. The experiment in a line: Sulforhodamine B (SRB) cell viability assay, RKO. The class given is cell-based. Conditions: Homo sapiens, CRC cell line, 48 h, read-out: IC50 (μM) ± SD, RKO. On the procedure:
as §1, §2

The test system of assay [2] is RKO cells. The experiment in a line: Annexin V/PI assay (flow cytometry), RKO. Type of assay: cell-based, human. Conditions: 2 × IC50 and 4 × IC50, 48 h. On the procedure: (§3) RKO and MCF7 cells were seeded in 12-well plates at a density of 1 × 10^5 cells/mL. After 24 h, the cells were treated with C9, A36, and A42 at 2 × IC50 and 4 × IC50 concentrations or 0.1% DMSO (vehicle). Untreated cells were used as controls. After 48 h, floating and adherent cells were collected. The cells were resuspended in […] of binding buffer and treated for 15 min in the dark with 5 μL of Annexin V-FITC (Detection Kit-ab14085) and 5 μL of Propidium Iodide (50 μg/mL). The samples were subjected to flow cytometry analysis, PI fluorescence was detected using the ECD-A channel, and Annexin V fluorescence was detected using the FITC-A channel.
(§4) One of the main goals of clinical oncology is the development of compounds and treatments capable of selectively eliminating cancer cells. In this sense, we next evaluated the capability of the compounds to induce cell death in both cell lines. For this, we performed a flow cytometry analysis using annexin V-FITC and propidium iodide PI double staining. The conjugation of these two probes allowed for the discrimination of viable (negative for both), early apoptotic (annexin + and PI−), late apoptotic (annexin+ and PI+), and necrotic (annexin− and PI+) cells. […] Both flouting and attached cells were harvested and double stained.

In assay [3] the test system is MCF7 cells. Description: Annexin V/PI assay (flow cytometry), MCF7. The class given is cell-based, human. Conditions: MCF7, 2 × IC50 and 4 × IC50, 48 h. On the procedure: as §3, §4
Background: A flow cytometer gives signals particle by particle.

Assay [4] has as its system RKO cells. Description: Lysosomal membrane permeabilization (acridine orange, flow cytometry), RKO. Type of assay: cell-based, human. The conditions noted are these: 4 × IC50, 48 h. On the procedure: (§5) RKO and MCF7 lysosomal membrane permeabilization (LMP) was evaluated through flow cytometry using the Acridine Orange (A.O) probe. RKO and MCF7 cells were seeded in 12-well plates at a density of 1 × 10^5 cells/mL. After 24 h, the cells were treated with the compounds C9, A36, and A42 at 2 × IC50 and 4 × IC50 concentrations or 0.1% DMSO (vehicle). As a control, untreated cells were employed. Following a 48 h period, the adherent and floating cells were collected and subjected to a 15-min dark incubation period at 37 °C with 1 μM A.O. After that, the samples were examined by flow cytometry using the PC5.5 channel.
(§6) Following the information obtained with the lead compound and considering the microscopic observations made with these new compounds, we next investigated whether their toxicity was also associated with lysosome targeting. To this end, we evaluated the induction of lysosomal membrane permeabilization (LMP) by flow cytometry, using acridine orange (AO) as probe. This probe allows for an assessment of permeabilization, as its fluorescence decreases upon the release of lysosomal protons. […] The cells that presented decreased AO fluorescence were considered to have permeabilized lysosomes.

Assay [5] deals with MCF7 cells. The experiment in a line: Lysosomal membrane permeabilization (acridine orange, flow cytometry), MCF7. The class given is cell-based, human. The conditions noted are these: MCF7, 4 × IC50, 48 h. On the procedure: as §5, §6
Assay [6] deals with RKO cells. Description: ROS levels (DHE, flow cytometry), RKO. The class given is cell-based, human. Conditions: 2 × IC50 and 4 × IC50, 48 h. On the procedure: (§7) The RKO and MCF7 ROS levels were evaluated through flow cytometry using the dihydroethidium (DHE) probe. RKO and MCF7 cells were seeded in 12-well plates at a density of 1 × 10^5 cells/mL. After 24 h, the cells were treated with the compounds C9, A36, and A42 at 2 × IC50 and 4 × IC50 concentrations or 0.1% DMSO (vehicle). As a control, untreated cells were used. The cells were collected after 48 h of treatment, washed with PBS 1×, and stained for 30 min at 37 °C in the dark using 0.5 μM DHE. The DHE mean fluorescence intensity was analyzed by flow cytometry using the PE-A channel.
(§8) Since ROS generation is reported to precede LMP and cell death, and in view of reports showing that some compounds of this family increase intracellular ROS levels under certain circumstances, we also investigated whether C9, A36, and A42 had any effects in this regard.

Assay [7] deals with MCF7 cells. The experiment in a line: ROS levels (DHE, flow cytometry), MCF7. The class given is cell-based, human. Conditions: MCF7, 2 × IC50 and 4 × IC50, 48 h. On the procedure: as §7, §8

Broadly, the IC50 is the midpoint of a concentration-inhibition curve.

Consider `CCCNc1cc2oc3cc(=NCC)c(C)cc-3nc2c2ccccc12` [C9], for which the IC50 in the assay with BJ-5ta cells came to 2.55 ± 0.15 µM; in the assay with HCT116 cells it was 1.64 ± 0.09 µM; in the assay on RKO cells [1], 0.17 ± 0.01 µM. Besides, the “Cell death induction (Annexin V/PI)” value in the assay with RKO cells [2] and in the assay on MCF7 cells [3] was “most powerful compounds” each time. Moreover, the “Percentage of cells with LMP (permeabilized lysosomes)” value with RKO cells [4] and in the assay on MCF7 cells [5] was “more than 80%” throughout. The “ROS levels (fluorescence mean of DHE)” value in the assay on RKO cells [6] and in the assay on MCF7 cells [7] was “higher intensity” each time.
